Values after ≈ are worked out from the molar mass of the structure shown.
Assays:
[1] = system: stage II naupliar larvae of the barnacle Amphibalanus amphitrite; experiment: Toxicity assay with barnacle nauplii; assay type: in vivo; conditions: Amphibalanus amphitrite (barnacle), stage II naupliar larvae, in vivo
Description: (§1) Biological assays were conducted with larval barnacles. Barnacles are dominant and tenacious members of marine fouling communities, and often serve as a substrate for less resistant organisms. Therefore, historically they have been used as a model organism for antifouling studies. To determine the biological response of larvae to test compounds, two bioassays were performed: settlement (using settlement stage cyprids), and toxicity (using nauplii). Procedures followed methods standard in the field, which were first described by Rittschof et al. (1992).
(§2) Stock solutions of each compound were made at 50 mg/ml. Pure compounds were diluted in DMSO and sonicated. Stock solutions were stored at −20° C. in 4 ml amber screw cap vials until use. For bioassays, a small amount of stock solution was diluted in 1 μm filtered seawater (in a glass scintillation vial). The solution was then sonicated for 10 minutes. To obtain the desired concentration range, serial dilutions of the test solution were made. As control, a serial dilution of the equivalent amounts of DMSO in seawater was used.
Toxicity assays employed stage II naupliar larvae of the barnacle Amphibalanus amphitrite (previously Balanus amphitrite: Pitombo, 2004). Assay procedures were modified from Rittschof et al. (1992). Adult A. amphitrite were collected from inter-tidal areas near the Kranji mangrove, Singapore. Larval culture was based on Rittschof et al. (1984). Following collection, nauplii were concentrated for use in bioassays by placing a fiber optic light source at one side of the container, and pipetting from the resulting dense cloud of nauplii.
In order to determine LD50 values for each compound, compounds were tested over a range of concentrations between 0-50 μg/ml. For each assay, each compound at each concentration was tested in triplicate with a single batch of nauplii. The overall assay was conducted twice, using two different batches of nauplii. Two controls were run along with each assay (in triplicate): filtered seawater only, and DMSO at […] (since DMSO was used as a solvent for test compounds, this concentration is equivalent to the concentration of DMSO in the highest test compound concentration).
For assays, approximately 20 nauplii (in 50 μl filtered seawater) were added to 1 ml test solution or control, in a 2 ml glass vial (La Pha Pack® PN 11-14-0544). Assays were run for 22-24 hours at 25-27° C. After this time, living and dead nauplii were counted using a Bogorov tray. Nauplii that were approaching death were scored as dead. Data for all assays was combined and LD50 was calculated (where possible) using a probit analysis (Libermann, 1983). If LD50 could not be calculated using probit analysis, values were extrapolated based on plotted data.

barnacle cyprids = experiment: Settlement assay with barnacle cyprids; assay type: in vivo, Amphibalanus amphitrite
Description: as §1, with “nauplii).” for “nauplii). Procedures followed methods standard in the field, which were first described by Rittschof et al. (1992).”
as §2
Nauplii were cultured as described above, and then reared at 25° C. on an algal mixture of 1:1 v/v of Tetraselmis suecica and Chaetoceros muelleri (approximately density 5×10^5 cells per ml). Under these conditions, nauplii typically metamorphose to cyprids in 5 days. Cyprids were aged at 4° C. for 2 days.
Settlement assays were conducted in 7 ml neutral glass vials (Samco® T103/V1; 34×23 mm diameter). For assays, each solution was made at twice the desired final concentration; 0.5 ml of this solution was transferred to vials. To each vial, cyprids were added by transferring 0.5 ml filtered seawater containing 20-40 aged cyprids. As in toxicity assays: each compound at each concentration was run in triplicate with cyprids from a single batch; two controls (filtered seawater and DMSO) were run along with each assays; and the overall assay was conducted twice, using two different batches of cyprids.
Assays were conducted for 24 hours, after which time the number of settled cyprids, the number of free swimming (unsettled) cyprids, and the number of dead cyprids were counted for each vial. Both metamorphosed, juvenile barnacles and cyprids that had committed to settlement (glued themselves to the vial), but had not yet metamorphosed, were counted as ‘settled’. Data was expressed as percent settlement. […] If ED50 could not be calculated using probit analysis, values were extrapolated based on plotted data.

[2] = Observation on standing (note in characterisation); assay type: physicochemical; conditions: HRMS consistent with free alcohol
Description: To a round bottomed flask containing DMAP (2 mg) was added a solution of 2-(4-hydroxymethyl)phenyl-1-(piperidin-1-yl)hexanone (30 mg, 0.10 mmol) in dry dichloromethane (2 mL). To the resulting mixture was added dry NEt3 (208 μL, 1.5 mmol) followed by acetic anhydride (100 μL, 1.0 mmol). The resulting mixture was allowed to stir for 3 hours. After this time, the reaction mixture was washed with saturated NaHCO3, water and then brine and the organic phase was dried (Na2SO4) and concentrated under reduced pressure. The title compound was obtained as a colourless oil (20 mg, 60%) following purification by flash column chromatography (50% EtOAc in hexane, Rf=0.7). ^1H NMR (400 MHz, CDCl3) δ 0.86 (t, J=7 Hz, 3H); 1.0-1.2 (2×m, 2H); 1.2-1.5 (multiple signals, 8H); 1.68 (m, 1H); 4.53 (m+s, 4H); 3.33 (m, 1H), 3.39 (m, 1H); 3.49 (m, 1H); 3.60 (m, 1H); 3.70 (t, J=7 Hz, 1H); 5.07 (s, 2H); 7.72 (m, 4H). ^13C NMR (75 MHz, CDCl3) δ14.01, 21.08, 22.72, 24.57, 25.60, 26.20, 30.09, 34.77, 43.20, 46.66, 48.38, 66.07, 128.03, 128.58, 134.24, 141.02, 171.09, 171.17.
To a round bottomed flask containing DMAP (2 mg) was added a solution of 2-(4-hydroxymethyl)phenyl-1-(piperidin-1-yl)hexanone (30 mg, 0.10 mmol) in dry CH2Cl2 (2 mL). To the resulting mixture was added dry NEt3 ([…], 1.5 mmol) followed by acetic anhydride (100 μL, 1.0 mmol). The resulting mixture was allowed to stir for 3 hours. […]

Question: With CCCCC(C(=O)N1CCCCC1)c1ccc(COC(C)=O)cc1 (stereo not shown) [Compound 16.3, 2-(4-acetoxymethyl)phenyl-1-(piperidin-1-yl)hexanone] as the compound, how does the LD50 [1] read?
Answer: >50 µg/mL

Question: And the IC50 (barnacle cyprids; Amphibalanus amphitrite, 24 h, anti-settlement, barnacle cyprids, 24 hours, concentration causing 50% reduction in settlement vs controls, read-out: ED50 (the source's name))?
Answer: 6.35 µg/mL (≈ 19.2 µM)

Question: And the “TR (LD50/ED50)” value (barnacle cyprids; therapeutic ratio, LD50 (nauplii) / ED50 (cyprids))?
Answer: >7.87

Question: What about the stability on standing [2] of the same compound?
Answer: hydrolyses on standing
